These results are taken from patent US11426472B2, “Fibroblast activation protein (FAP) targeted imaging and therapy in fibrosis” (Purdue Research Foundation, priority 2018, dated 2022).

One series relates to AKT phosphorylation. Nature of the series: Western blot of TGFβ-stimulated HLF-1 fibroblasts: Akt phosphorylation. The class given is cell-based, human. The procedure: (§1) PI3KI1 inhibits Akt phosphorylation, proliferation, collagen secretion and collagen gel contraction in HLF-1 fibroblasts. (A) PI3KI1 structure. (B) Confluent HLF-1 fibroblasts were stimulated with TGFβ (1 ng/mL) with indicated PI3KI1 or OMIPALISIB and lysates collected for Western blotting. […] Collagen 1 and αSMA expression was suppressed by 100 nM PI3KI1, but pSMAD2 was not affected by PI3K inhibitors. (C) MTT assay and Caspase 3 and 7 activity (Supplementary data) show PI3KI1 inhibited HLF-1 proliferation at >100 nM. (D) HLF-1 fibroblasts were stimulated with TGFβ (1 ng/mL) for 3 days and level of secreted collagen in culture medium was determined by Sirius Red staining. […] Data are analysis by t-test; *p<0.05, **p<0.01.
(§2) Serum starved confluent HLF1 cells were co-incubated in medium containing 1 ng/ml TGFb1 with or without designate concentrations of PI3K inhibitors for 24 hours. Cells were harvested and lysed for Western blot analysis. Following sodium dodecyl sulphate polyacrylamide gel electrophoresis and blocking, membranes were incubated with antibodies to detect pSMAD2^Ser465/467 (#3101, Cell Signalling Technology), or pAkt^Ser473 (#4060, Cell signalling Technology), and signals visualized with ECL Western Blotting Detection Reagents (GE Healthcare). […]

A further series concerns IPF fibroblasts. Description: TGFβ-induced Collagen I in IPF patient fibroblasts (molecular crowding assay, high content imaging). Type of series: cell-based, human. The conditions noted are these: for TGFβ-induced collagen production/secretion: IPF patient fibroblasts, TGFβ 1 ng/mL, 48 h. The procedure: PI3KI1 and PI3KI1-FAPL suppressed TGFβ-induced collagen production in IPF fibroblasts. (B) Confluent IPF fibroblasts were stimulated for 48 h with TGFβ (1 ng/mL) with increasing concentrations of OMIPALISIB or PI3KI1 or PI3KI1-FAPL and Collagen I expression was assayed by molecular crowding assay with high content image analysis. Data are expressed as relative fluorescent intensity over TGFβ treated IPF fibroblasts (C) and cell counts obtained from DAPI counterstaining (D).

The test system of series [1] is Collagen 1 and αSMA expression. Description: Western blot of TGFβ-stimulated HLF-1 fibroblasts: Collagen 1 and αSMA expression. The class given is cell-based, human. The conditions noted are these: 100 nM, HLF-1, TGFβ 1 ng/mL. The method, then: as §1, §2
For orientation: Immunoblotting shows a protein as a band on a membrane.

The test system of series [2] is HLF-1 fibroblasts. Nature of the series: MTT assay and Caspase 3 and 7 activity in HLF-1. The class given is cell-based, human. The method, then: as §1
FIG. 18. Caspase 3 and 7 activity show PI3KI1 inhibited HLF-1 proliferation at >100 nM.

In series [3] the test system is HLF-1 fibroblasts. Nature of the series: Collagen gel contraction assay. Type of series: cell-based, human. The conditions noted are these: 100 nM for 12 hours. The method, then: as §1
Series [4] has as its system HLF-1 fibroblasts. Description: Secreted collagen in HLF1 cells (Sirius Red staining). Type of series: cell-based, human. The method, then: as §1
Confluent HLF1 cells were seeded in DMEM medium containing 10% FBS and then 0.4% serum starvation overnight before stimulation of collagen secretion. TGFb1 (0.1 ng/ml) were added into cells with or without PI3K inhibitors. At 2 days post co-incubation, culture medium was collected for determination of total secreted collagen level. Total collagen level was determined by Sirius Red Total Collagen Detection Kit (Chondrex, Inc). Basically, concentrated sample incubated with […] of Sirius Red Solution with for 20 minutes at room temperature. […] Add […] of Extraction Buffer to the Sirius Red stained pellet and read the OD at 510-550 nm.

In another series the target is T1, mouse FAP (Mus musculus, UniProt P97321).
T1 construct: NIH-3T3 cells were induced with TGFβ to express FAP; endogenous in cells; host or cells: NIH-3T3 mouse fibroblasts induced with TGFβ
T1 sequence (P97321 1-761): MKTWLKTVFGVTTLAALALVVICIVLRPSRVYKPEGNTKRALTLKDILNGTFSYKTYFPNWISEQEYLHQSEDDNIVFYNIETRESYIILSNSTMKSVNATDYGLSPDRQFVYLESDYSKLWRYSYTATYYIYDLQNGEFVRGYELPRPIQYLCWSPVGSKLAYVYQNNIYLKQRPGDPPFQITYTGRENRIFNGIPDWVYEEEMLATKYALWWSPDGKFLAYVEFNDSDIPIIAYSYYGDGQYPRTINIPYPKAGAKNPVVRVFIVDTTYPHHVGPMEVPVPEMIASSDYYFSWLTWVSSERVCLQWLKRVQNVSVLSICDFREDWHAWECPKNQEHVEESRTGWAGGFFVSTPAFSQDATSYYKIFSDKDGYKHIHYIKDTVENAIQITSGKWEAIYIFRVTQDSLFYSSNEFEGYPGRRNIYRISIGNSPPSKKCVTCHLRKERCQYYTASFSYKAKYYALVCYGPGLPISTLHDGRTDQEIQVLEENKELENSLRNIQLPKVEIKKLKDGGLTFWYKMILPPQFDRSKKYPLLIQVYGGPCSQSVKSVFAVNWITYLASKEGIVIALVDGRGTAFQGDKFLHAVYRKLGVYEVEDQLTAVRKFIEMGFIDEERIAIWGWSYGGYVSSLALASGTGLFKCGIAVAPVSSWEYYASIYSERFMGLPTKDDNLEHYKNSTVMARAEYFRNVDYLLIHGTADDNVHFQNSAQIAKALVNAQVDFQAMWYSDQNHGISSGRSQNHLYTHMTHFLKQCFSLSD
Nature of the series: Binding of FAPL_FITC to TGFβ-induced NIH-3T3 cells. The class given is cell-based. The text has this: FAPL-FITC targets mouse FAP in mouse fibroblast cells. Fluorescence binding affinity study of FAPL_FITC in HLF-hFAP cells. (C) Binding of FAPL_FITC to TGFb induced mouse NIH-3T3 cell line.
In this Example, we have shown that FAPL_FITC can recognize mouse FAP. Briefly, NIH-3T3 cells were induced with TGFβ to express FAP (mimicking the pathogenesis of fibrosis in mice). FAPL_FITC can recognize almost 98% of the cell population that binds to a specific monoclonal antibody against mouse FAP.

In another series the target is T2, human FAP (Homo sapiens, UniProt Q12884).
T2 construct: expressed in transfected cells; host or cells: HLF1 human lung fibroblast cell line transfected with FAP (HLF1-hFAP)
T2 sequence (Q12884 1-760): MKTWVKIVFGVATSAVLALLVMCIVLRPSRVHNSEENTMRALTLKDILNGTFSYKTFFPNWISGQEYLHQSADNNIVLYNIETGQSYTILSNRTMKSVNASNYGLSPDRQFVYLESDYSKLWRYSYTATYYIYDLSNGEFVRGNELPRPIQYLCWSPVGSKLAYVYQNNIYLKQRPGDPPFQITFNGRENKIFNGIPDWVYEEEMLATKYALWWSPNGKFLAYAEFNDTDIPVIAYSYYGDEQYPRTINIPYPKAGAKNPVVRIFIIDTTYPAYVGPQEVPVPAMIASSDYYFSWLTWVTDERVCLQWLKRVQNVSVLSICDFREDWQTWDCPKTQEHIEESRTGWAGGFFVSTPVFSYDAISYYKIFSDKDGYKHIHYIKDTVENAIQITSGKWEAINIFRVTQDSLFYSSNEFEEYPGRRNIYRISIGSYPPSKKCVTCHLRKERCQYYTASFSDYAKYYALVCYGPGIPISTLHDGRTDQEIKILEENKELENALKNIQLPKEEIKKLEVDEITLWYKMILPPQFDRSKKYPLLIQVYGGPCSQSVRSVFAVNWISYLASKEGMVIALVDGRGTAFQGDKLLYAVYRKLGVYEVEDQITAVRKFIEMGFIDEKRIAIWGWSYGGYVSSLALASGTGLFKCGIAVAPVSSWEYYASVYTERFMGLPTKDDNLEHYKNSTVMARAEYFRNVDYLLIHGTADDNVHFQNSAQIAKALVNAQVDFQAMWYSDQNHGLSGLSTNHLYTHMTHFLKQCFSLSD
Description: Live cell imaging of FAP-FITC binding and internalization in HLF1-hFAP cells. The conditions noted are these: 10 nM. Type of series: cell-based. The procedure:
FAPL-FITC targets human FAP in HLF1 cells. A) Live cell imaging of FAPL-FITC internalization. confocal microscopy images of HLF1-hFAP cells incubated with FAPL-FITC (10 nM), FAP staining is shown in green. Spatial localization of FAPL-FITC in HLF1-hFAP cell line at 0 min (a), and at 30 min (d). Colocalization of FAP and endosomes: HLF1-hFAP cells incubated with FAPL-FITC followed by staining for endosomes (Rab7a-RFP; red) and nucleus (DRAQ5; blue). The merge of the 3 images is shown on the right (c, and f). Yellow indicated colocalization of FAP with endosomal markers.
HLF1-hFAP cells were seeded in the glass-bottom dish and incubated with adequate amount of endosomes tracker (Rab7a-RFP, ThermoFisher) for overnight. Then cells were incubated with FAP-FITC (10 nM) for 1 hour at 4° C. Followed by staining with […] DRAQ5 nucleus dye (ThermoFisher) and 3 times of PBS washes, spatial localization of FAP-FITC was monitor at given time under ambient temperature by confocal microscope (FV 1000, Olympus). Confocal images were further processed by FV10-ASW, Olympus software.

The subject of series [5] is bleomycin-induced lung fibrosis. Description: Therapy in bleomycin-induced lung fibrosis model (survival, hydroxyproline). The class given is in vivo, mouse. The conditions noted are these: for survival: bleomycin-induced mice versus untreated/PBS control; for hydroxyproline/collagen in lung: bleomycin-induced mice, day 21, versus untreated/PBS control. The text has this: Therapy with FAP-a targeted Pi3K inhibitor in bleomycin treated mice. (A) Schematic representation of the experimental protocol for induction, treatment and examination of pulmonary fibrosis in a mouse model. (B) Survival probability of the FAPL_PI3KI1 treated mice over the saline control. (C) Hydroxyproline content (ug/lung) of control (saline), bleomycin treated with and without FAPL_PI3KI1 treatment at day 21. (D) Body weight change
8 to 10-week old C57BL/6-NCrl (Strain Code: 027) male mice (Charles River) were anesthetized (mixture of xylazine/ketamine), followed by a single intratracheal injection of freshly prepared 0.75 mg/Kg of bleomycin sulfate (Cayman Chemicals, Cat N13877) in 50 μL of sterile phosphate-buffered saline (PBS). Control mice were injected with 50 μL of sterile PBS. Body weights were monitored throughout the study. To access the FAP expression and fibrosis in the longitudinal study the lungs were harvested at Days 7, 14 and 21 post-bleomycin instillation. For the therapy with FAP-PI3K inhibitor, same procedure was carried out to administer bleomycin and the lungs were harvested at Day 21 to access the therapeutic efficacy (Day 0 was accounted as the day of bleomycin administration).
Total lung collagen was determined by analysis of hydroxyproline as previously described.^30 The right lung was consistently dedicated for this assay to allow comparison. Briefly, harvested right lung was homogenized in PBS (PH 7.4), digested with 12N HCl at 120° C. for 3 hr. Citrate/acetate buffer (PH 6.0) and Chloramine-T solution were added at room temperature for 20 minutes and the samples were incubated with Ehrlich's solution for 15 min at 65° C. Samples were cooled to room temperature and read at 550 nm. Hydroxyproline standards (Sigma, MO) at concentrations between 0 to 100 μg/ml were used to construct a standard curve.

A further series relates to PI-3 Kinase signaling. The conditions noted are these: IPF-derived lung fibroblasts; cited from earlier work.

As for `COc1ncc(-c2ccc3nccc(-c4ccc(CO)nc4)c3c2)cc1NS(=O)(=O)c1ccc(F)cc1F` [PI3KI1], the “Akt phosphorylation inhibition compared with OMIPALISIB” value with AKT phosphorylation (HLF-1) was “better than its GSK counterpart OMIPALISIB”. For the same compound, the IC50 with AKT phosphorylation (Homo sapiens, HLF1, HLF-1, TGF-β 1 ng/ml for 24 hr, read-out: IC50 of TGF-β induced AKT phosphorylation) amounted to 1.4 nM. In the series on IPF fibroblasts, the TGFβ-induced collagen production/secretion entry is “suppressed”. The “Collagen 1 and αSMA expression” value in [1] is “suppressed”. In the series with HLF-1 fibroblasts [2] (HLF-1), the toxicity result is “does not have toxicity”. In addition, the “concentration at which HLF-1 proliferation is inhibited” value in the series on HLF-1 fibroblasts [2] (MTT assay and Caspase 3 and 7 activity) is given as above 100 nM. For the same compound, in the series with HLF-1 fibroblasts [3], the “fibroblast reorganization and contraction (collagen gel contraction)” value is “disrupted fibroblasts reorganization and contraction”. Moreover, in the series with HLF-1 fibroblasts [4] (HLF-1 cell line, TGFβ stimulated), the collagen secretion entry was “suppresses collagen secretion”.
Regarding `C[C@H](NC(=O)c1ccnc(CNC(=O)CCC(=O)NC(CSC2CC(=O)N(c3ccc(C4c5ccc(O)cc5OC5=CC(=O)C=CC54)c(C(=O)O)c3)C2=O)C(=O)O)c1)C(=O)N1CC(F)(F)C[C@H]1C#N` (some centres unmarked) [FAPL-FITC], the “cell population recognized among cells binding a monoclonal antibody against mouse FAP” value on mouse FAP is around 98%. The “binding to hFAP-HLF1 cell line” value at human FAP (confocal microscopy and flow cytometry) is on record as “binds well with good competition”. Further, at human FAP (HLF1-hFAP cells), the internalization result is given as “internalized upon receptor engagement”.
Turning to `COc1ncc(-c2ccc3nccc(-c4ccc(COC(=O)OCCSSCC(NC(=O)CCC(=O)NCc5cc(C(=O)N[C@@H](C)C(=O)N6CC(F)(F)C[C@H]6C#N)ccn5)C(=O)O)nc4)c3c2)cc1NS(=O)(=O)c1ccc(F)cc1F` (some centres unmarked) [FAPL-PI3KI1], the IC50 in the series on IPF fibroblasts (IPF patient cell lines, read-out: IC50 of collagen secretion/synthesis) was below 10 nM; in the series on HLF-1 fibroblasts [4] (HLF1-hFAP cell line, read-out: IC50 of collagen secretion/synthesis), below 10 nM. The TGFβ-induced collagen production/secretion entry is “suppresses TGFβ induced collagen secretion at low drug concentration, better than free PI3KI1 and free GSK drug OMIPALISIB” in the series on IPF fibroblasts (listed as FAP_PI3KI1); “suppressed” with IPF fibroblasts (listed as PI3KI1-FAPL). Further, the survival entry is given as “increased survival” in series [5] and “increased survival rate” in series [5] (listed as FAPL_PI3KI-SUH). The hydroxyproline/collagen in lung entry in series [5] is given as “decreased hydroxyproline/collagen production”; in series [5] (listed as FAPL_PI3KI-SUH), “reduction of hydroxyproline”.
For the compound `COc1ncc(-c2ccc3nccc(-c4ccnnc4)c3c2)cc1NS(=O)(=O)c1ccc(F)cc1F` [OMIPALISIB], in the series on PI-3 Kinase signaling, the “PI-3 Kinase signaling and functional responses” value is “inhibited PI-3 Kinase signaling and functional responses”.
